The target in test [1] is T1, PRMT5 (Homo sapiens, UniProt O14744).
T1 construct: purchased Viva (custom protein)
In words: PRMT5 biochemical IC50 assay with SAM as cofactor. The note with it: PRMT5, SAM as cofactor; read-out: SAM IC50.

In test [2] the target is T1, PRMT5. Kind of test: PRMT5 biochemical IC50 assay with MTA as cofactor. The note with it: PRMT5, MTA as cofactor; read-out: MTA IC50.
Test [3] has as its system HAP1 MTAP-deleted cell line. Kind of test: Viability assay, MTAP-deleted cell line. In kind it is cell-based. The note with it: Homo sapiens, HAP1, viability assay, MTAP-deleted cell line; read-out: HAP1 MTAP deleted viability. An excerpt: Table 1 additionally indicates IC50 values in a viability assay for the MTAP-deleted cell line (column 10), indicating the effect of treatment with compound on cell survival.

For test [4], the system named is HAP1 MTAP-intact cell line. Kind of test: SDMA in-cell western assay, HAP1 MTAP-intact. The note with it: Homo sapiens, HAP1, SDMA in-cell western, HAP1 MTAP-intact; read-out: MTAP HAP1 intact IC50. In kind it is cell-based. In a few lines: (§1)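 IC50 values come from SDMA signal quantified by in-cell western in two HAP1 lines, one with native MTAP levels and one lacking MTAP.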

The test system of test [5] is HAP1 MTAP-deleted cell line. Kind of test: SDMA in-cell western assay, HAP1 MTAP-deleted. The format is cell-based. The conditions noted are these: for pIC50: Homo sapiens, HAP1, SDMA in-cell western, HAP1 MTAP-deleted, read-out: HAP1 MTAP deleted IC50; for MTAP intact/deleted ratio: IC50 ratio HAP1 MTAP-intact / HAP1 MTAP-deleted, SDMA in-cell western. In a few lines: as §1

Test [6] has as its target T1, PRMT5. In words: PRMT5 biochemical IC50 assay with no cofactor. The note with it: PRMT5, no cofactor; read-out: No Cofactor/rel IC50. The source says: Table 1 indicates IC50 values (μM) against PRMT5 for exemplary compounds in the presence of SAM as cofactor, with no cofactor, and with MTA as cofactor, respectively (columns 4-6). […] Ki values can be calculated from the IC50 values as described in the Examples section. As detailed in the Examples section, for the assay performed in the presence of SAM, IC50=Ki×1.5 (Ki=IC50/1.5).

pIC50: −log10 of the molar value.

Here are results for 7 molecules from patent US11999727B2 (Tango Therapeutics, Inc., priority 2020, dated 2024).

T1 sequence (O14744 whole entry): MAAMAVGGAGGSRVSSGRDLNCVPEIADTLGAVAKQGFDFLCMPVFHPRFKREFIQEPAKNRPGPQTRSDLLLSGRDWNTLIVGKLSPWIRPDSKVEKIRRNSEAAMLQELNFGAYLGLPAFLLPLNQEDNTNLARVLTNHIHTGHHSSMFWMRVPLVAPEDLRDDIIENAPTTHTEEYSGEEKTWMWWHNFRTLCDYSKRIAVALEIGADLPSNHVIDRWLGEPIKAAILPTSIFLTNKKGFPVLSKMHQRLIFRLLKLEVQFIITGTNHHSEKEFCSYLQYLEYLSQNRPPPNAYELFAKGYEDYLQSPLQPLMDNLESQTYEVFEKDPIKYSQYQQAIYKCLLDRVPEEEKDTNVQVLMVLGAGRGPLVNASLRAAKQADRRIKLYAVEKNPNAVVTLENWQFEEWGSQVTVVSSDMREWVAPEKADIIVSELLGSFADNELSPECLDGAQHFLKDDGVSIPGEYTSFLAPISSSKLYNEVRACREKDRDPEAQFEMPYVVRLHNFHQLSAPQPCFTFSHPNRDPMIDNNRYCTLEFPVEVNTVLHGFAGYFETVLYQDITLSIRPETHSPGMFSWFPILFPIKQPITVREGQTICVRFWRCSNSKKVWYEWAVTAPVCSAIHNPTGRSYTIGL
T1 sequence (Q9BQA1 whole entry partner): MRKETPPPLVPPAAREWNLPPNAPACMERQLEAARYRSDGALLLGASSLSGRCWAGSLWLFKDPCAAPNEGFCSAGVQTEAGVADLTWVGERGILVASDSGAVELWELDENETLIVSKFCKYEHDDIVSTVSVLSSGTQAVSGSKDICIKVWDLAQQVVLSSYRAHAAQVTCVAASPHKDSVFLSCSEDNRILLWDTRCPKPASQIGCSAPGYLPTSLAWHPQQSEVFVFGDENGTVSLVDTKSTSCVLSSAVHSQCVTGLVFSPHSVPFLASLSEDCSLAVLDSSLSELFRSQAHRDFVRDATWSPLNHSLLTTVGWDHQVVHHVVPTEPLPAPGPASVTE

In the case of `CNc1ccc([C@@H]2CC[C@@H](C)CN2C(=O)C(=O)Nc2cncc(C(N)=O)c2)cn1` (racemic) [Compound 209, rac-5-{2-[(2R,5S)-5-Methyl-2-[6-(methylamino)pyridin-3-yl]piperidin-1-yl]-2-oxoacetamido}pyridine-3-carboxamide], the pIC50 on PRMT5 [1] is 6.30 to 7.30; at PRMT5 [2] it was greater than 7.30; in test [3], 5.00 to 6.00; in test [4], less than 6.00; in test [5], greater than 7.00; at PRMT5 [6], 6.30 to 7.30. Further, in test [5], the MTAP intact/deleted ratio entry is recorded as “A (an IC50 ratio greater than or equal to 10 fold)”.

Consider `C[C@@H]1CC[C@@H](c2ccc(Cl)cc2)N(C(=O)C(=O)Nc2cncc(C(N)=O)c2)C1` (racemic) [Compound 212, rac-5-[[2-[(2S,5R)-2-(4-chlorophenyl)-5-methyl-1-piperidyl]-2-oxo-acetyl]amino]pyridine-3-carboxamide], for which the pIC50 at PRMT5 [1] is 6.30 to 7.30; on PRMT5 [2], greater than 7.30; in test [3], 5.00 to 6.00; in test [4] it was less than 6.00; in test [5], greater than 7.00; on PRMT5 [6], 6.30 to 7.30. Besides, the MTAP intact/deleted ratio entry in test [5] is given as “A (an IC50 ratio greater than or equal to 10 fold)”.

With `C[C@@H]1CC[C@@H](c2ccc(CN3CCOCC3)cc2)N(C(=O)C(=O)Nc2cncc(C(N)=O)c2)C1` (racemic) [Compound 213], the pIC50 at PRMT5 [1] was 6.30 to 7.30; on PRMT5 [2], greater than 7.30; in test [3], less than 5.00; in test [4] it was less than 6.00; in test [5], 6.00 to 7.00; at PRMT5 [6], 6.30 to 7.30. Besides, in test [5], the MTAP intact/deleted ratio result is on record as “A (an IC50 ratio greater than or equal to 10 fold)”.

Turning to `COc1cccc([C@@H]2CC[C@@H](C)CN2C(=O)C(=O)Nc2cncc(C(N)=O)c2)c1` (racemic) [Compound 214, rac-5-{2-[(2R,5S)-2-(3-Methoxyphenyl)-5-methylpiperidin-1-yl]-2-oxoacetamido}pyridine-3-carboxamide], the pIC50 was 6.30 to 7.30 at PRMT5 [1]; greater than 7.30 at PRMT5 [2]; 5.00 to 6.00 in test [3]; less than 6.00 in test [4]; greater than 7.00 in test [5]; 6.30 to 7.30 at PRMT5 [6].

Turning to `Cc1cccc2cc([C@@H]3CC[C@@H](C)CN3C(=O)C(=O)Nc3cncc(C(N)=O)c3)cnc12` (racemic) [Compound 215, rac-5-{2-[(2R,5S)-5-Methyl-2-(8-methylquinolin-3-yl)piperidin-1-yl]-2-oxoacetamido}pyridine-3-carboxamide], the pIC50 at PRMT5 [1] was less than 6.30; at PRMT5 [2] it was 6.30 to 7.30; in test [3], less than 5.00; in test [4] it was less than 6.00; in test [5] it was less than 6.00; on PRMT5 [6], less than 6.30. In addition, the MTAP intact/deleted ratio result in test [5] is on record as “B (an IC50 ratio greater than or equal to 3 fold but lower than 10 fold)”.

Regarding `Cc1cnn(-c2ccc([C@@H]3CC[C@@H](C)CN3C(=O)C(=O)Nc3cncc(C(N)=O)c3)cc2)c1` (racemic) [Compound 218, rac-5-{2-[(2R,5S)-5-Methyl-2-[4-(4-methyl-11H-pyrazol-1-yl)phenyl]piperidin-1-yl]-2-oxoacetamido}pyridine-3-carboxamide], the pIC50 on PRMT5 [1] was 6.30 to 7.30; on PRMT5 [2] it was greater than 7.30; in test [3] it was 5.00 to 6.00; in test [4] it was less than 6.00; in test [5] it was greater than 7.00; on PRMT5 [6], 6.30 to 7.30. Further, the MTAP intact/deleted ratio result in test [5] is on record as “A (an IC50 ratio greater than or equal to 10 fold)”.

For `C[C@@H]1CC[C@@H](c2ccc(C(N)=O)cc2)N(C(=O)C(=O)Nc2cncc(C(N)=O)c2)C1` (racemic) [Compound 220, rac-5-{2-[(2R,5S)-2-(4-Carbamoylphenyl)-5-methylpiperidin-1-yl]-2-oxoacetamido}pyridine-3-carboxamide], the pIC50 on PRMT5 [1] is 6.30 to 7.30; on PRMT5 [2] it was greater than 7.30; in test [3], less than 5.00; in test [4] it was less than 6.00; in test [5], 6.00 to 7.00; on PRMT5 [6] it was 6.30 to 7.30. The MTAP intact/deleted ratio result in test [5] is “A (an IC50 ratio greater than or equal to 10 fold)”.
